The text below walks through data of PMC8011576 (Nature biomedical engineering, 2020).

The structures appear in SMILES notation. Entries after “also recorded” stand apart in the source; their conditions may differ. Where two headings read alike, the source gives them in different places.

The test system of one data set is OCT2. In words: Western blot of OCT2 in Kidney Chip. Type of data set: cell-based, human. The settings on record: cisplatin exposure, Western blot vs controls. For orientation: In western blotting, separated proteins are transferred to a membrane and probed.
In data set [1] the test system is first pass human Organ Chips. The following applies: nicotine exposure, linked Gut, Liver, Kidney Chips.
A short description of data set [2]: Human clinical nicotine PK. The following applies: blood, oral, 16 μM. Type of data set: in vivo.
Another data set relates to Gut Chip. The settings on record: nicotine in epithelial lumen.
For data set [3] the following is noted: rodent in vivo; ref Yamazaki et al [35]; cited from earlier work.
For another data set, the system named is Liver Chip. In words: Albumin production in Liver Chip. The class given is cell-based, human. The settings on record: nicotine exposure, linked chips.
Another data set deals with CYP3A4. The settings on record: nicotine exposure, linked chips.
For data set [4], the system named is intestinal epithelial cells and endothelial cells in Transwell inserts. The settings on record: nicotine, same intestinal epithelial and endothelial cells.
The conditions of data set [5]: 396±16 μM nicotine infused into Gut Chip lumen for 84 hrs, MS.
For data set [6] the following is noted: cited from earlier work.
[7] abbreviates: human clinical data, ref Digard et al. [28].

As for `N.N.[Cl][Pt][Cl]` [Cisplatin, cisplatin], in the data set with OCT2, the “OCT2 expression in the Kidney Chip” value is reported as “increased; also recorded: upregulation”.
As to `CN1CCC[C@H]1c1cccnc1` [Nicotine, nicotine], in data set [1], the “toxicity (LDH release) in first pass human Organ Chips” value was “did not detect toxicity”. The half-life (usually the time needed for the level to fall by half in the phase considered) in data set [2] was 10.6 min. Further, in the data set on Gut Chip, the “intestinal barrier function of the Gut Chip, inulin tracer” value is “could not detect any effect”. Besides, the “intestinal barrier function of the Gut Chip, Cascade Blue tracer” value with Gut Chip (P < 0.03) is “significantly increased”. Besides, in data set [3], the “Kidney Renal Clearance, CLR” value is on record as 5.5 ml/min/kg.BW and the “Liver Intrinsic Clearance, CLint” value is listed as 300 ml/min/kg.BW. In addition, the “albumin production in the Liver Chip” value in the data set on Liver Chip is “remained unchanged”. For the same compound, the “CYP3A4 activity in the Gut Chip” value with CYP3A4 is given as “remained unchanged”. Also, the “barrier change by TEER in static Transwell inserts” value in [4] is given as “did not detect a barrier change”. Besides, the “maximum level measured in the AV Reservoir” value in data set [5] was 0.8 ± 0.08 µM. Moreover, in data set [6] (clinical studies), the unbound in vivo is 40%. Also, in [6] (setting [7]), the “Liver Intrinsic Clearance, CLint” value is listed as 12.5 ml/min/kg.BW and the “Liver Secondary Intrinsic Clearance, CLint, sec” value is given as 0.74 ml/min/kq.BW.
